Reference: ChEMBL document CHEMBL4739717, “Methods of treating cartilage disorders through inhibition of clk and dyrk” (2020)

Legend:
[1] = Effect on Wnt signaling pathway in human SW480 cells harbouring TCF/LEF luciferase reporter gene and SP5-Luc reporter gene incubated for 36 to 48 hrs by luminescence assay; assay type: cell-based
[2] = Induction of chondrogenesis in human MSC assessed as maximum activity at 10 nM incubated for 6 days by rhodamine B and Nile red staining based imaging analysis relative to control; assay type: functional; conditions: BMMSC, 144 h, time 6 day
[3] = biological target: Dual specificity tyrosine-phosphorylation-regulated kinase 1A (Homo sapiens, UniProt Q13627); assay: Inhibition of recombinant DYRK1A (unknown origin) using Ser/Thr 18 peptide as substrate incubated for 1 hr in presence of ATP by FRET assay
[4] = Induction of chondrogenesis in human MSC assessed as incubated for 6 days by rhodamine B and Nile red staining based imaging analysis; assay type: functional; conditions: bmmsc

| EC50 [1] [nM] | EC50 [3] [nM] | EC50 [4] [nM] | SMILES | Emax at 0.01 µM [2] [%] |
| --- | --- | --- | --- | --- |
| > 10000 | 9 | 30 | CN1CCN(c2cncc3[nH]c(-c4n[nH]c5ccc(-c6cncc(N)c6)nc45)nc23)CC1 | 64.6 |
| 124 | 84 | 10 | Cc1ccncc1-c1cnc2[nH]nc(-c3nc4c(-c5cc(F)cc(CNS(C)(=O)=O)c5)nccc4[nH]3)c2c1 | 92.8 |
| 22.3 | 12 | 10 | COc1cncc(C(=O)Nc2c[nH]nc2C(=O)Nc2ccc(OCCN3CCCC3)nc2)c1 | 106 |
| 1620 | 3 | 30 | O=C(Nc1cncc(-c2cc3c(-c4cc5cnccc5[nH]4)n[nH]c3cn2)c1)C1CCCCC1 | 59.4 |
| > 10000 | 92 | 10 | CCCCC(=O)Nc1cncc(-c2ccc3[nH]nc(-c4nc5c(-c6ccoc6)cncc5[nH]4)c3n2)c1 | 73.6 |
| 390 | 48 | 10 | O=C(Nc1cncc(-c2cnc3[nH]nc(-c4cc5c(-c6ccccc6F)cncc5[nH]4)c3c2)c1)C1CC1 | 52.1 |
| > 10000 | 21 | 10 | CC(C)(C)CC(=O)Nc1cncc(-c2ccc3[nH]nc(-c4nc5ccncc5[nH]4)c3n2)c1 | 54.1 |
| > 10000 | 18 | 10 | CC(C)Nc1cncc(-c2cnc3[nH]nc(-c4cc5c(-c6cccnc6)ccnc5[nH]4)c3c2)c1 | 135 |
| > 10000 | 64 | 10 | O=C(CC1CCNCC1)Nc1cncc(-c2ccc3[nH]nc(-c4cc5c(-c6ccoc6)ccnc5[nH]4)c3n2)c1 | 102 |
| > 10000 | 28 | 10 | Cc1ncc(-c2cnc3[nH]nc(-c4cc5c(-c6ccncc6)cncc5[nH]4)c3c2)n1C | 194 |
| > 10000 | 27 | 30 | CC(C)C(=O)Nc1cncc(-c2cc3c(-c4cc5c(-c6cc(F)cc(CNS(C)(=O)=O)c6)nccc5[nH]4)n[nH]c3cn2)c1 | 79.5 |
| 377 | 26 | 30 | COc1cccc(-c2nccc3[nH]c(-c4n[nH]c5ccc(-c6cccnc6)nc45)nc23)c1 | 50.6 |
| 100 | 83 | 10 | CC(C)Nc1cncc(-c2ccc3[nH]nc(-c4cc5c(-c6cccnc6)cccc5[nH]4)c3c2)c1 | 226 |
| 405 | 60 | 10 | CN(C)CCNc1cc(F)cc(-c2cccc3[nH]c(-c4n[nH]c5cnc(-c6cncc(O)c6)cc45)cc23)c1 | 66.4 |
| 3330 | 54 | 10 | Clc1ccc(-c2cncc3[nH]c(-c4n[nH]c5ccc(-c6cncc(CN7CCCC7)c6)nc45)nc23)s1 | 62 |
| 66.3 | 20 | 10 | Cc1ccc(-c2cccc3[nH]c(-c4n[nH]c5ccc(-c6cncc(N)c6)nc45)nc23)s1 | 87.9 |
| > 10000 | 35 | 10 | O=C(Nc1cncc(-c2ccc3[nH]nc(-c4cc5c(-c6cccnc6)cncc5[nH]4)c3c2)c1)c1ccccc1 | 68.5 |
| > 10000 | 100 | 10 | CS(=O)(=O)NCc1cc(F)cc(-c2nccc3[nH]c(-c4n[nH]c5ccc(-c6cncc(NC(=O)Cc7ccccc7)c6)nc45)cc23)c1 | 110 |
| 1300 | 53 | 10 | CS(=O)(=O)NCc1cc(F)cc(-c2cncc3[nH]c(-c4n[nH]c5ccc(-c6cncc(NC(=O)C7CC7)c6)nc45)cc23)c1 | 82.9 |
| > 10000 | 97 | 30 | c1cncc(-c2ccc3[nH]nc(-c4nc5cnccc5[nH]4)c3n2)c1 | 54.8 |
| 22.2 | 35 | – | O=C(Nc1cncc(-c2cc3c(-c4nc5c(-c6cccs6)nccc5[nH]4)n[nH]c3cn2)c1)C1CC1 | 68.3 |
| 1120 | 53 | 30 | c1cncc(-c2ccc3[nH]nc(-c4nc5c(-c6cccnc6)cccc5[nH]4)c3n2)c1 | 57.8 |
| 981 | 14 | 10 | CC(C)Nc1cncc(-c2ccc3[nH]nc(-c4nc5c(-c6cccnc6)nccc5[nH]4)c3n2)c1 | 54.4 |
| > 10000 | 86 | 10 | O=C(Nc1cncc(-c2ccc3[nH]nc(-c4nc5c(-c6ccccc6F)ccnc5[nH]4)c3n2)c1)C(F)(F)F | 74 |
| 823 | 92 | 30 | O=C(Nc1cncc(-c2ccc3[nH]nc(-c4nc5c(-c6ccc(Cl)s6)nccc5[nH]4)c3n2)c1)C1CCC1 | 60.2 |
| 710 | 34 | 10 | CN(C)c1cncc(-c2ccc3[nH]nc(-c4nc5c(-c6cccs6)cncc5[nH]4)c3n2)c1 | 65.6 |

| EC50 [1] [nM] | EC50 [3] [nM] | EC50 [4] [nM] | SMILES | Emax at 0.01 µM [2] [%] |
| --- | --- | --- | --- | --- |
| 45 | 18 | – | CCC(=O)Nc1cncc(-c2ccc3[nH]nc(-c4cc5c(-c6cccc(F)c6)nccc5[nH]4)c3c2)c1 | 16.2 |
| > 10000 | 62 | 10 | CCCCC(=O)Nc1cncc(-c2cc3c(-c4cc5c(-c6cc(F)cc(CNS(C)(=O)=O)c6)nccc5[nH]4)n[nH]c3cn2)c1 | 111 |
| 1410 | 56 | 10 | c1ccc2[nH]c(-c3n[nH]c4ncc(-c5cncc(CN6CCCC6)c5)cc34)cc2c1 | 97.6 |
| 1100 | 68 | 10 | CS(=O)(=O)NCc1cc(F)cc(-c2nccc3[nH]c(-c4n[nH]c5ccc(-c6cncc(CN7CCCCC7)c6)nc45)cc23)c1 | 50.1 |
| 823 | 30 | – | O=C(Nc1cncc(-c2ccc3[nH]nc(-c4nc5c(-c6ccccc6F)cccc5[nH]4)c3n2)c1)C(F)(F)F | 40.1 |
| > 10000 | 5 | – | CC(C)CC(=O)Nc1cncc(-c2cnc3[nH]nc(-c4cc5c(-c6cccnc6)ccnc5[nH]4)c3c2)c1 | 43.5 |
| 1350 | 12 | – | FC1(F)CCN(Cc2cncc(-c3cc4c(-c5cc6cccnc6[nH]5)n[nH]c4cn3)c2)C1 | 45.3 |
| 22 | 10 | – | CC(C)CC(=O)Nc1cncc(-c2ccc3[nH]nc(-c4nc5c(-c6cc(F)cc(NCCN(C)C)c6)cncc5[nH]4)c3c2)c1 | 82 |
| 395 | 11 | 10 | CCNCc1cncc(-c2ccc3[nH]nc(-c4cc5ccccc5[nH]4)c3c2)c1 | 532 |
| 28.3 | 29 | – | c1cncc(-c2cc3c(-c4nc5c(-c6cccnc6)nccc5[nH]4)n[nH]c3cn2)c1 | 44.5 |
| 1050 | 62 | – | CN(C)Cc1cncc(-c2ccc3[nH]nc(-c4nc5c(-c6cccc(F)c6)cncc5[nH]4)c3n2)c1 | 16.7 |
| 345 | 5 | – | O=C(CC1CCNCC1)Nc1cncc(-c2cc3c(-c4nc5c(-c6cccc(F)c6)ccnc5[nH]4)n[nH]c3cn2)c1 | 54.7 |
| 1 | 36 | – | CC(C)Nc1cncc(-c2ccc3[nH]nc(-c4nc5c(-c6ccccc6F)cncc5[nH]4)c3c2)c1 | 56.8 |
| > 10000 | 93 | – | CN1CCN(c2ccnc3[nH]c(-c4n[nH]c5ccc(-c6cncc(N)c6)nc45)nc23)CC1 | 46.9 |
| 3570 | 2 | – | CCCCC(=O)Nc1cncc(-c2cc3c(-c4cc5cnccc5[nH]4)n[nH]c3cn2)c1 | 49.9 |
| 1350 | 24 | – | O=C(Nc1cncc(-c2ccc3[nH]nc(-c4cc5c(-c6cccnc6)cncc5[nH]4)c3c2)c1)C1CCCC1 | 45.5 |
| 642 | 46 | – | O=C(Nc1cncc(-c2ccc3[nH]nc(-c4cc5c(-c6ccccc6F)nccc5[nH]4)c3n2)c1)C1CC1 | 24.8 |
| 1060 | 9 | – | c1cncc(-c2cnc3[nH]nc(-c4cc5cccnc5[nH]4)c3c2)c1 | 11 |
| 3640 | 59 | – | c1cc(-c2ccoc2)c2cc(-c3n[nH]c4ccc(-c5cncc(CNCC6CCCC6)c5)nc34)[nH]c2c1 | 25.3 |
| 0.1 | 19 | – | CC(C)CC(=O)Nc1cncc(-c2ccc3[nH]nc(-c4nc5c(-c6cccs6)cncc5[nH]4)c3c2)c1 | 53.3 |
| 3450 | 5 | – | CC(C)CC(=O)Nc1cncc(-c2ccc3[nH]nc(-c4cc5c(N6CCN(C)CC6)ccnc5[nH]4)c3n2)c1 | 49.5 |
| > 10000 | 34 | – | c1cncc(-c2ccc3[nH]nc(-c4cc5c(-c6cccnc6)ccnc5[nH]4)c3c2)c1 | 16.7 |
| 479 | 14 | – | CC(C)CC(=O)Nc1cncc(-c2ccc3[nH]nc(-c4cc5c(-c6cc(F)cc(CNS(C)(=O)=O)c6)nccc5[nH]4)c3n2)c1 | 33.1 |
| 700 | 26 | – | CC(C)C(=O)Nc1cncc(-c2cc3c(-c4cc5c(N6CCN(C)CC6)cccc5[nH]4)n[nH]c3cn2)c1 | 36.4 |
| 681 | 7 | – | COc1cncc(C(=O)Nc2c[nH]nc2C(=O)Nc2ccc(N3CCNCC3)nc2)c1 | 90.7 |
